Where two headings read alike, the source gives them in different places.
How the values were obtained:
[1] = test system: human U373 glioblastoma (GBM); test: MTT antiproliferative assay, U373; format: cell-based; conditions: 72 h treatment, sextuplicates, read-out: GI50 in vitro values, U373
Description: (§1) Human mammary carcinoma MCF-7 (ATCC HTB22) cells were cultured in RPMI supplemented with 10% FBS. The U87 cells (ATCC HTB-14) were cultured in DMEM culture medium, while the A549 cells (DSMZ ACC107) were cultured in RPMI culture medium supplemented with 10% heat-inactivated FBS. The GBM Hs683 (ATCC HTB-138) cells were cultivated in DMEM supplemented with 10% FBS. The human uterine sarcoma MES-SA (ATCC CRL1966) and MES-SA/D×5 cells were cultured in RPMI-1640 medium supplemented with 10% FBS with MES SA/D×5 maintained in the presence of 500 nM Doxorubicin (Sigma). SKMEL-28 cells (ATCC HTB72) and U373 GBM cells (ECACC 08061901) were cultured in RPMI culture medium supplemented with 10% heat-inactivated FBS. Cell culture media were supplemented with 4 mM glutamine (Lonza code BE17-605E), 100 μg/mL gentamicin (Lonza code 17-5182), and penicillin-streptomycin (200 units/ml and 200 μg/ml) (Lonza code 17-602E). The MDA-MB-231 (ATCC HTB-26) epithelial mammary adenocarcinoma cells were cultured in Eagle's minimum essential medium (EMEM; Invitrogen) containing 5% fetal calf serum (FCS, Cambrex), 2 mM L-glutamine (Invitrogen), 0.06% HEPES (Invitrogen) and penicillin (50 IU/ml)/streptomycin (50 µg/ml; Invitrogen) at 37° C. in a humidified atmosphere of 5% CO2 in air. Transformed mouse NPCs were cultured in suspension under neurosphere conditions at 37° C. in a humidified atmosphere of […] and 5% CO2 in DMEM F12 (Invitrogen 11320-074) supplemented with 1×B27 supplement (Invitrogen 17504-044), 5% penicillin-streptomycin (Biochrom 10378-017), 10 ng/ml EGF (R&D systems 236-EG), 10 ng/ml FGF (PeproTech 100-18B).
(§2) Antiproliferative properties of the synthesized compounds were evaluated by the MTT assay. All compounds were dissolved in DMSO at a concentration of either 100 μM or 50 μM prior to cell treatment. The cells were trypsinized and seeded at various cell concentrations depending on the cell type. The cells were grown for 24 h to 72 h, treated with compounds at concentrations ranging from 0.001 to 100 μM and incubated for 48 or 72 h in 100 or 200 μL media depending on the cell line used. The number of experiments and replicates varied depending on the cell line. Cells treated with 0.1% DMSO were used as a negative control; 1 μM PAO was used as a positive control.
(§3) The synthesized C12-Wittig derivatives were evaluated for antiproliferative activities in a panel of cancer cell lines that included apoptosis-resistant human U373 glioblastoma (GBM) (Lefranc et al., 2013), human A549 non-small cell lung cancer (NSCLC) and human SKMEL-28 melanoma (Mathieu et al., 2009) as well as apoptosis-sensitive human Hs683 anaplastic oligodendroglioma (Lefranc et al., 2013) and human MCF-7 breast cancer (Frolova et al., 2013).

[2] = test system: human MCF-7 breast cancer; test: MTT antiproliferative assay, MCF-7; format: cell-based; conditions: sextuplicates, read-out: GI50 in vitro values, MCF-7
Description: as §1, §2, §3

human SKMEL-28 melanoma = test: MTT antiproliferative assay, SKMEL-28; format: cell-based; conditions: sextuplicates, read-out: GI50 in vitro values, SKMEL-28
Description: as §1, §2, §3

[3] = test system: panel of cancer cell lines (A549, SKMEL-28, MCF-7, U373, Hs683); test: MTT antiproliferative assay, panel of five cancer cell lines; format: cell-based, human; conditions: mean over five cell lines, 72 h treatment, MTT assay, read-out: GI50 in vitro values, Mean + SEM
Description: as §2, §3

[4] = test system: human A549 non-small cell lung cancer (NSCLC); test: MTT antiproliferative assay, A549; format: cell-based; conditions: for GI50: 72 h treatment, MTT assay, sextuplicates, read-out: GI50 in vitro values, A549
Description: as §1, §2, §3

[5] = test system: human Hs683 anaplastic oligodendroglioma; test: MTT antiproliferative assay, Hs683; format: cell-based; conditions: sextuplicates, read-out: GI50 in vitro values, Hs683
Description: as §1, §2, §3

OSCC cell line HSC3 = test: Cell viability (Cell Titer 96 Aqueous), HSC3; format: cell-based, human; conditions: 48 hours; potency order P10, polygodial, P3
Text: (§4) Human cancer cell lines were obtained from the American Type Culture Collection (ATCC, Manassas, Va., USA), the European Collection of Cell Culture (ECACC, Salisbury, UK) and the Deutsche Sammlung von Mikroorganismen und Zellkulturen (DSMZ, Braunschweig, Germany). The OSCC cell lines, Cal27 and HSC3 are derived from human primary tongue tumor. Cal27 cells were obtained from the American Type Culture Collection (Rockville, Md.). HSC3 cells were provided by Dr. Brian Schmidt. HeLa cells (cervical cancer cell line) were obtained from ATCC. Cells were cultured in DMEM, containing 10% FBS and 1% penicillin-streptomycin media, at 37° C. in 5% CO2. All cells were authenticated by Genetic DNA Laboratories.
(§5) The cytotoxicity of polygodial, P10, P3, and P27 in Cal27, HSC3, and HeLa cells was examined in vitro using a colorimetric assay, Cell Titer 96® Aqueous Non-Radioactive Cell Proliferation Assay. […] GraphPad Prism4 was used to perform statistical analysis.

[6] = target: T1, CHO cells that overexpress TRPV1 (CHO-TRPV1) (Homo sapiens, UniProt Q8NER1); test: Calcium imaging, CHO-TRPV1; format: cell-based; conditions: polygodial 80 μM, P10 4 μM, P3 50 μM
T1 construct: expressed in transfected cells; host or cells: CHO cells
Description: CHO cells that overexpress TRPV1 (CHO-TRPV1) were treated with polygodial (80 μM), P10 ([…]), or P3 (50 μM) and calcium influx was measured. Cells were also pre-treated with the TRPV1 antagonist capsazepine (CPZ; 10 μM) to determine if calcium influx via TRPV1 was inhibited. 3 μM ionomycin was used as a positive control. Fluo-4 Direct Calcium Assay Kit and Sweptfield confocal with Nikon Ti were used to visualize calcium influx and the images were analyzed using ImageJ software.

HSC3 cells = test: Calcium imaging, HSC3; format: cell-based, human
HeLa-derived tumors = test: Mouse xenograft model, HeLa; format: in vivo, athymic nude mice
Description: Six-week old female athymic nude mice were used in laminar air-flow cabinet in pathogen-free conditions. They were acclimated for one week prior to the start of the study and kept at controlled temperature and humidity, with food and water. Mice were injected subcutaneously in the flank with 2×10^6 Cal27 cells or HeLa cells in 0.1 mL of sterile PBS. When the tumors reached 100 mm^3 (Cal27) and 150 mm^3 (HeLa), the mice were stratified into 4 groups, […], polygodial, P10, P3 and P27 at the concentrations noted in the figure legends.

HeLa cells = test: Calcium imaging, HeLa; format: cell-based, human; conditions: polygodial 80 μM, P10 4 μM, P3 50 μM
[7] = test system: cervical cancer cell line HeLa; test: Cell viability (Cell Titer 96 Aqueous), HeLa; format: cell-based, human; conditions: 48 hours; potency order P10, polygodial, P3
Text: as §4, §5

[8] = test system: uterine sarcoma MES-SA cells; test: MTT antiproliferative assay, MES-SA; format: cell-based, human; conditions: Homo sapiens, MES-SA, 48 h treatment, relative to DMSO control, read-out: GI50 in vitro values, MES-SA
Description: as §1
(§6) Antiproliferative properties of the synthesized compounds were evaluated by the MTT assay. All compounds were dissolved in DMSO at a concentration of either 100 μM or 50 μM prior to cell treatment. The cells were trypsinized and seeded at various cell concentrations depending on the cell type. […]

[9] = test system: MDR uterine sarcoma cell line MES-SA/Dx5; test: MTT antiproliferative assay, MDR MES-SA/Dx5; format: cell-based, human
Description: as §1, §2
Selection of the MES-SA/D×5 cell line was done according to Harker et al. (Harker & Sikic, 1985). The cells were split and allowed to adhere overnight. The next day cells were initially exposed to doxorubicin (DOX) at the concentration of 100 nM, which represented the GI50 concentration. The cells were maintained at this DOX concentration until their growth rate reached that of the untreated cells. The DOX concentration was then increased in two-fold increments following the same growth criteria at each concentration to a final DOX concentration of 500 nM. Each new DOX concentration required approximately 2 passages to reach the growth rate of the untreated cells.
Often, tumors initially respond to chemotherapy but eventually become refractory to the continuing treatment. Such acquired resistance commonly occurs through the development of a multi-drug resistant phenotype (MDR) (Gottesman et al., 2002 and Saraswathy & Gong, 2013) affecting many common chemotherapeutic agents, including the vinca alkaloids (Chen et al., 2000) and taxanes (Geney et al., 2002). In addition, the development of apoptosis resistance and MDR mechanisms is often related and concurrent (Ruefli et al., 2002 and Johnstone et al., 1999), and thus it was of interest to evaluate 5 against MDR cells. Towards this end, the MDR uterine sarcoma cell line MES-SA/D×5, established by growing the parent uterine sarcoma MES-SA in the presence of increasing concentrations of doxorubicin and resistant to multiple functionally and structurally unrelated molecules (Harker & Sikic, 1985), was utilized.

[10] = test system: U87 glioblastoma cell cultures; test: MTT growth curves, U87; format: cell-based, human; conditions: apoptosis-resistant U87 GBM; concentrations up to 100 μM
Description: as §1, §6

T1 sequence (Q8NER1 whole entry): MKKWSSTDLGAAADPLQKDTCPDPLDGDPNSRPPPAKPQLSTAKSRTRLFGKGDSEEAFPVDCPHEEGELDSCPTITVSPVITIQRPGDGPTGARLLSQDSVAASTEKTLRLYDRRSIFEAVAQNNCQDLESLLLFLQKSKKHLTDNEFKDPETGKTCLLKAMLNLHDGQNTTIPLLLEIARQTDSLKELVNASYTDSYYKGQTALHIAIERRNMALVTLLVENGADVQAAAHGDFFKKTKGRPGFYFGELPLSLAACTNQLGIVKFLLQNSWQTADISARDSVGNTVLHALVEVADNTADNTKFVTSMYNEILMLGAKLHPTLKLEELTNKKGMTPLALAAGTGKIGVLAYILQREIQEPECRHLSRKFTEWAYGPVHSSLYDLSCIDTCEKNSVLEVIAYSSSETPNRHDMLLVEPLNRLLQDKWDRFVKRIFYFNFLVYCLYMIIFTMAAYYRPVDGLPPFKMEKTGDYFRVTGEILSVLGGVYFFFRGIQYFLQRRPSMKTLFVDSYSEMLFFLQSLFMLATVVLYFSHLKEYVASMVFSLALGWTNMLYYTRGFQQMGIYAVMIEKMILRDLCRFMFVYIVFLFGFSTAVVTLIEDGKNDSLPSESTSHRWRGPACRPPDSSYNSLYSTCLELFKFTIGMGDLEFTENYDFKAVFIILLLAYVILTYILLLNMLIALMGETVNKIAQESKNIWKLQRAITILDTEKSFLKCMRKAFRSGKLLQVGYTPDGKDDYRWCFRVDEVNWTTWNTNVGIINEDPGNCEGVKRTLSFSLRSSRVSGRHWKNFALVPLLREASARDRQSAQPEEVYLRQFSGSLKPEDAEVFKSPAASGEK

Row | SMILES | GI50 [1] [µM] | GI50 ([2]; 72 h treatment) [µM] | GI50 (human SKMEL-28 melanoma; 72 h treatment) [µM] | GI50 [3] [µM] | GI50 [4] [µM] | GI50 ([5]; 72 h treatment) [µM] | also measured
1 | COC(=O)/C=C/C1=CCC2C(C)(C)CCC[C@]2(C)[C@@H]1C=O (stereo partly shown) | – | – | – | – | – | – | GI50 ([1]; Homo sapiens, U373 MG): 39 ± 1 µM; GI50 ([2]; Homo sapiens, MCF7, 72 h treatment): 28 ± 1 µM; GI50 (human SKMEL-28 melanoma; Homo sapiens, SK-MEL-28, 72 h treatment): 70 ± 1 µM; GI50 ([3]; Homo sapiens): 40 ± 8 µM; GI50 ([4]; Homo sapiens, A549): 29 ± 1 µM; GI50 ([5]; Homo sapiens, Hs 683, 72 h treatment): 33 ± 0.5 µM
2 | CCOC(=O)/C=C/C1=CCC2C(C)(C)CCC[C@]2(C)[C@@H]1C=O (stereo partly shown) [Compound 6] | 37 | 30 | 29 | 30 ± 2 | 25 | 29 | –
3 | CCOC(=O)C(C)=CC1=CCC2C(C)(C)CCCC2(C)C1C=O (stereo not shown) [Compound 7] | 37 | 27 | 37 | 31 ± 2 | 26 | 28 | –
4 | CC(C)(C)OC(=O)/C=C/C1=CCC2C(C)(C)CCC[C@]2(C)[C@@H]1C=O (stereo partly shown) [Compound 8] | 40 | 32 | 41 | 34 ± 3 | 29 | 29 | –
5 | CC1(C)CCC[C@]2(C)[C@H](C=O)C(C=O)=CC[C@@H]12 [Compound P10, 9-epi-polygodial] | – | – | – | – | – | – | cancer cell viability, HSC3 (OSCC cell line HSC3): reduced cancer cell viability in vitro; TRPV1 activation (calcium influx), CHO-TRPV1 [6]: do not; reversal of calcium influx by capsazepine, HSC3 (HSC3 cells; CPZ 10 μM): not reversed; calcium influx, HSC3 (HSC3 cells; polygodial 80 μM, P10 4 μM, P3 50 μM): did induce calcium influx; anti-tumor effect, HeLa-derived tumors (HeLa-derived tumors; 40 μg/100 μl intra-tumor injection every other day for 18 days, polygodial significantly more efficacious than P3): not efficacious in vivo; adverse effects, HeLa xenograft mice (HeLa-derived tumors; mouse, in vivo): no adverse effects in vivo; calcium influx, HeLa (HeLa cells): did not induce calcium influx; cancer cell viability, HeLa [7]: reduced cancer cell viability in vitro
6 | CC[C@]1(O)C[C@@H]2CN(CCc3c([nH]c4ccccc34)[C@@](C(=O)OC)(c3cc4c(cc3OC)N(C)[C@H]3[C@@](O)(C(=O)OC)[C@H](OC(C)=O)[C@]5(CC)C=CCN6CC[C@]43[C@@H]65)C2)C1 [Vinblastine] | – | – | – | – | – | – | GI50 [8]: 0.006 µM; change of potency against MES-SA/Dx5 MDR cell line as compared with parent MES-SA cells ([9]; 48 h MTT): lost their potency by a factor of a thousand; GI50 ([9]; Homo sapiens, MES-SA/Dx5, 48 h treatment, MTT assay, relative to DMSO control, read-out: GI50 in vitro values, MES-SA/Dx5): 5 µM
7 | COc1cc([C@@H]2c3cc4c(cc3[C@H](O)[C@H]3COC(=O)[C@H]23)OCO4)cc(OC)c1OC [podophyllotoxin, reference compound] | – | – | – | – | – | – | effect on proliferation/viability of all cells, U87 [10]: no effect on proliferation of ca. 50% of cells; effect on proliferation/viability of all cells, A549 ([4]; apoptosis-resistant A549 NSCLC, concentrations up to 100 μM): no effect on proliferation of ca. 50% of cells

Now from value to compound, other results behind:

Row | GI50 [1] [µM] | GI50 ([2]; 72 h treatment) [µM] | GI50 (human SKMEL-28 melanoma; 72 h treatment) [µM] | GI50 [3] [µM] | GI50 [4] [µM] | GI50 ([5]; 72 h treatment) [µM] | SMILES | also measured
8 | 39 | 27 | 39 | 33 ± 3 | 28 | 31 | CC1(C)CCCC2(C)C(C=O)C(C=CC(=O)OCc3ccccc3)=CCC12 (stereo not shown) [Compound 9] | –
9 | 27 | 31 | 25 | 25 ± 3 | 29 | 12 | COC(=O)/C=C/C=C/C1=CCC2C(C)(C)CCC[C@]2(C)[C@@H]1C=O (stereo partly shown) [Compound 10] | –
10 | 36 | 31 | 42 | 33 ± 3 | 27 | 28 | CC1(C)CCC[C@@]2(C)C1CC=C(/C=C/C#N)[C@H]2C=O (stereo partly shown) [Compound 11] | –
11 | 25 | 20 | 28 | 24 ± 1 | 24 | 22 | CC(=O)/C=C/C1=CCC2C(C)(C)CCC[C@]2(C)[C@@H]1C=O (stereo partly shown) [Compound 12] | –
